Results: US11230526B1, “Cylcoalkenyl derivatives useful as agonists of the GPR120 and/or GPR40 receptors” (Janssen Pharmaceutica NV, priority 2018, dated 2022)
Where “and” joins values, the source holds several entries; their conditions need not be identical. Equal entries are not always repeated.

Assays:
[1] = molecular target: T1, short form of the GPR120 receptor (Homo sapiens, UniProt Q5NUL3); experiment: Human GPR120 DiscoveRx PathHunter Beta-Arrestin assay, Procedure β-arrestin B; assay type: cell-based
T1 construct: host or cells: PathHunter CHO-K1 GPR120S β-Arrestin Cell Line

Human GPR120 short form = molecular target: T2, Human GPR120 short form (Homo sapiens, UniProt Q5NUL3); experiment: Human GPR120 calcium flux assay, Procedure Calcium B (4200 cells/well); assay type: cell-based
T2 construct: expressed in transfected cells
T2 sequence (Q5NUL3 1-361): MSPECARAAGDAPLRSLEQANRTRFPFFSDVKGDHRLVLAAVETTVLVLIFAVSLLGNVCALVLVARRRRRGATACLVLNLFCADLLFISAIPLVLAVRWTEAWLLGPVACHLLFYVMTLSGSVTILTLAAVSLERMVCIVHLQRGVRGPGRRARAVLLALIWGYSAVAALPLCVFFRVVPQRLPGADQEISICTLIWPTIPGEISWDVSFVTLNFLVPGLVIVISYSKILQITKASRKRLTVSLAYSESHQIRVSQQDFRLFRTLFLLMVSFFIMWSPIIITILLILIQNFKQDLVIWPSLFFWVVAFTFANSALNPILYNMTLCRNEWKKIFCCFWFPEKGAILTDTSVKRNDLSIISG
How it was run: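 Agonist EC50 came from a four-parameter fit of RFU (Fmax−Fmin) read over 300 s on FLIPR. Cells were HEK293 stably transfected with human GPR120 (NM_001195755.1) at 4200 per well, serum-starved 1 h and loaded with Fluo-4 NW dye with probenecid before ligand addition.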

T1 sequence (P32121 whole entry partner, one chain of several): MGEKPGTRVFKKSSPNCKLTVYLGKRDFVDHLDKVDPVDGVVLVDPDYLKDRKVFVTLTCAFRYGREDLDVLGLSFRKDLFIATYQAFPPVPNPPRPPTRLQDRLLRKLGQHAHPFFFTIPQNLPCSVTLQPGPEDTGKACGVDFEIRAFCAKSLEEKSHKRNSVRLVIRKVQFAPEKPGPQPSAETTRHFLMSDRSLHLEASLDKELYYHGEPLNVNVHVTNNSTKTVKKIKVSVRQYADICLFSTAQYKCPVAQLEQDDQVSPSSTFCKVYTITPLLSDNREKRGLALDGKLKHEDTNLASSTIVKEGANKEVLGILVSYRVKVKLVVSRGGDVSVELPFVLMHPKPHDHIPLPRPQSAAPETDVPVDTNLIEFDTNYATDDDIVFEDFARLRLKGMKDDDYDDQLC

Compound	EC50 [1]	EC50 (Human GPR120 short form)
Cc1c(CCC(=O)O)ccc(OCC2=C(c3ccccc3Br)CCC2)c1C [Compound 111, 3-[4-[[2-(2-bromophenyl)cyclopenten-1-yl]methoxy]-2,3-dimethyl-phenyl]Propanoic Acid]	2710 nM	687 nM
O=C(O)CCc1c(F)c(F)c(OCC2=C(c3ccc(Cl)cc3)CCC2)c(F)c1F [Compound 122, 3-[4-[[2-(4-chlorophenyl)cyclopenten-1-yl]methoxy]-2,3,5,6-tetrafluoro-phenyl]Propanoic Acid]	397 nM	247 nM
Cc1c(CCC(=O)O)ccc(OCC2=C(c3ccccc3F)CCC2)c1C [Compound 124, 3-[4-[[2-(2-fluorophenyl)cyclopenten-1-yl]methoxy]-2,3-dimethyl-phenyl]Propanoic Acid]	235 nM	67 nM
Cc1cc(OCC2=C(c3ccc(Cl)cc3)CCC2)ccc1CCC(=O)O [Compound 131, 3-[4-[[2-(4-chlorophenyl)cyclopenten-1-yl]methoxy]-2-methyl-phenyl]Propanoic Acid]	566 nM	118 nM
Cc1ccccc1C1=C(COc2ccc(CCC(=O)O)c(C)c2C)CCC1 [Compound 132, 3-[2,3-dimethyl-4-[[2-(o-tolyl)cyclopenten-1-yl]methoxy]phenyl]Propanoic Acid]	1800 nM	409 nM
Cc1c(CCC(=O)O)ccc(OCC2=C(c3ccc(Cl)cc3Cl)CCC2)c1C [Compound 133, 3-[4-[[2-(2,4-dichlorophenyl)cyclopenten-1-yl]methoxy]-2,3-dimethyl-phenyl]Propanoic Acid]	1130 nM	344 nM
Cc1ccc(C2=C(COc3ccc(CCC(=O)O)c(C)c3C)CCC2)cc1N [Compound 134, 3-(4-((2-(3-amino-4-methylphenyl)cyclopent-1-en-1-yl)methoxy)-2,3-dimethylphenyl)Propanoic Acid]	740 nM	1430 nM
COc1cccc(C2=C(COc3ccc(CCC(=O)O)c(C)c3C)CCC2)c1 [Compound 141, 3-[4-[[2-(3-methoxyphenyl)cyclopenten-1-yl]methoxy]-2,3-dimethyl-phenyl]Propanoic Acid]	1230 nM	256 nM
Cc1c(CCC(=O)O)ccc(OCC2=C(c3ccccn3)CCC2)c1C [Compound 147, 3-[2,3-dimethyl-4-[[2-(2-pyridyl)cyclopenten-1-yl]methoxy]phenyl]Propanoic Acid]	923 nM	336 nM
O=C(O)CCc1ccc(OCC2=C(c3ccc(Cl)cc3)CCC2)c(F)c1 [Compound 149, 3-[4-[[2-(4-chlorophenyl)cyclopenten-1-yl]methoxy]-3-fluoro-phenyl]Propanoic Acid]	90 nM	24 nM
O=C(O)CCc1ccc(OCC2=C(c3ccc(Cl)cc3)CCC2)cc1 [Compound 153, 3-[4-[[2-(4-chlorophenyl)cyclopenten-1-yl]methoxy]phenyl]Propanoic Acid]	93 nM	23 nM
Cc1c(CCC(=O)O)ccc(OCC2=C(c3ccc(Cl)nc3)CCC2)c1C [Compound 158, 3-(4-((2-(6-chloropyridin-3-yl)cyclopent-1-en-1-yl)methoxy)-2,3-dimethylphenyl)Propanoic Acid]	324 nM	133 nM
Cc1cc(CCC(=O)O)ccc1OCC1=C(c2ccc(Cl)c(F)c2)CCC1 [Compound 159, 3-(4-((2-(4-chloro-3-fluorophenyl)cyclopent-1-en-1-yl)methoxy)-3-methylphenyl)Propanoic Acid]	56 nM	26 nM
Cc1cc(CCC(=O)O)ccc1OCC1=C(c2ccc(Cl)cc2)CCC(F)(F)C1 [Compound 467, 3-(4-((4′-chloro-4,4-difluoro-3,4,5,6-tetrahydro-[1,1′-biphenyl]-2-yl)methoxy)-3-methylphenyl)Propanoic Acid]	104 nM	40 nM
Cc1c(CCC(=O)O)ccc(OCC2=C(c3ccc(Cl)cc3)CCC(F)(F)C2)c1C [Compound 468, 3-[4-[[2-(4-chlorophenyl)-5,5-difluoro-cyclohexen-1-yl]methoxy]-2,3-dimethyl-phenyl]Propanoic Acid]	244 nM	56 nM and 54 nM
Cc1c(CCC(=O)O)ccc(OCC2=C(c3ccccc3)CCCC2)c1C [Compound 472, 3-[2,3-dimethyl-4-[(2-phenylcyclohexen-1-yl)methoxy]phenyl]Propanoic Acid]	488 nM	32 nM
Cc1c(CCC(=O)O)ccc(OCC2=C(c3ccc(Cl)cc3)CCCC2)c1C [Compound 474, 3-[4-[[2-(4-chlorophenyl)cyclohexen-1-yl]methoxy]-2,3-dimethyl-phenyl]Propanoic Acid]	1030 nM	79 nM
O=C(O)CCc1c(F)c(F)c(OCC2=C(c3ccc(Cl)cc3)CCCC2)c(F)c1F [Compound 479, 3-[4-[[2-(4-chlorophenyl)cyclohexen-1-yl]methoxy]-2,3,5,6-tetrafluoro-phenyl]Propanoic Acid]	682 nM	73 nM
Cc1cc(CCC(=O)O)ccc1OCC1=C(c2ccc(Cl)cc2)CCCC1 [Compound 483, 3-[4-[[2-(4-chlorophenyl)cyclohexen-1-yl]methoxy]-3-methyl-phenyl]Propanoic Acid]	155 nM	52 nM
Cc1ccc(C2=C(COc3c(F)cc(CCC(=O)O)cc3F)CCCC2)cc1F [Compound 493, 3-[3,5-difluoro-4-[[2-(3-fluoro-4-methyl-phenyl)cyclohexen-1-yl]methoxy]phenyl]Propanoic Acid]	356 nM	37 nM
Cc1ccc(C2=C(COc3ccc(CCC(=O)O)c(F)c3F)CCCC2)cc1F [Compound 494, 3-[2,3-difluoro-4-[[2-(3-fluoro-4-methyl-phenyl)cyclohexen-1-yl]methoxy]phenyl]Propanoic Acid]	401 nM	37 nM
Cc1ccc(C2=C(COc3ccc(CCC(=O)O)c(C)c3C)CCCC2)cc1F [Compound 496, 3-[4-[[2-(3-fluoro-4-methyl-phenyl)cyclohexen-1-yl]methoxy]-2,3-dimethyl-phenyl]Propanoic Acid]	352 nM	81 nM
O=C(O)CCc1ccc(OCC2=C(c3ccc(Cl)cc3)CCC(F)(F)C2)c(F)c1F [Compound 503, 3-[4-[[2-(4-chlorophenyl)-5,5-difluoro-cyclohexen-1-yl]methoxy]-2,3-difluoro-phenyl]Propanoic Acid]	191 nM	97 nM
Cc1c(CCC(=O)O)ccc(OCC2=C(c3cccc(Cl)c3)CCCC2)c1C [Compound 509, 3-[4-[[2-(3-chlorophenyl)cyclohexen-1-yl]methoxy]-2,3-dimethyl-phenyl]Propanoic Acid]	1790 nM	414 nM
O=C(O)CCc1cc(F)c(OCC2=C(c3ccc(Cl)cc3)CCCC2)c(F)c1 [Compound 510, 3-[4-[[2-(4-chlorophenyl)cyclohexen-1-yl]methoxy]-3,5-difluoro-phenyl]Propanoic Acid]	210 nM	33 nM
O=C(O)CCc1ccc(OCC2=C(c3ccc(Cl)cc3)CCCC2)c(F)c1 [Compound 511, 3-[4-[[2-(4-chlorophenyl)cyclohexen-1-yl]methoxy]-3-fluoro-phenyl]Propanoic Acid]	187 nM	35 nM
Cc1c(CCC(=O)O)ccc(OCC2=C(c3ccc(N(C)C)cc3)CCCC2)c1C [Compound 512, 3-[4-[[2-(4-dimethylaminophenyl)cyclohexen-1-yl]methoxy]-2,3-dimethyl-phenyl]Propanoic Acid]	803 nM	140 nM
O=C(O)CCc1ccc(OCC2=C(c3ccc(Cl)cc3)CCCC2)c(F)c1F [Compound 513, 3-[4-[[2-(4-chlorophenyl)cyclohexen-1-yl]methoxy]-2,3-difluoro-phenyl]Propanoic Acid]	137 nM	42 nM
O=C(O)CCc1ccc(OCC2=C(c3ccc(Cl)cc3)CCCC2)c2c1CCC2 [Compound 514, 3-[7-[[2-(4-chlorophenyl)cyclohexen-1-yl]methoxy]indan-4-yl]Propanoic Acid]	252 nM	53 nM
